The results in this text go back to the METLIN SMRT retention time set (Domingo-Almenara et al. 2019).

Molecules are shown by their SMILES.

This data set is described as follows: gradient 5% acetonitrile 3 min, to 50% in 2 min, to 85% in 15 min, held 3 min, 100 µL/min. The conditions noted are these: column: Zorbax Extend-C18 2.1 x 50 mm; eluents: water / acetonitrile, 0.1% formic acid. The essentials:
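Data were gathered over 3 months by HPLC coupled to a quadrupole time-of-flight mass spectrometer, operated in positive and negative ionization mode. Mixtures of ~100 pure standards ran on a Zorbax Extend-C18 column (2.1 × 50 mm, 1.8 μm) at 100 μL/min, with water and acetonitrile each containing 0.1% formic acid and dead and dwell volumes of 40 μL and 900 μL. Retention time was read from adduct peaks picked by computer and checked manually.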
Regarding `COc1ccccc1NC(=O)c1c(NC(=O)C(C)C)sc2c1CCC2`, the RP-LC retention time is 815 s.
As for `COC(=O)c1ccc(-c2nc3cnccn3c2NC2CCCCC2)cc1`, the figure is 973 s; as for `COc1ccc(-c2nc(Cn3c(=O)c4c(C)cc(C)nc4n(C)c3=O)c(C)o2)cc1OC`, 1100 s; as for `O=C(COC(=O)C(c1ccccc1)c1ccccc1)Nc1ccc2c(c1)OCO2`, 940 s.
Turning to `COc1ccc(CNC(=O)CN2C(=O)NC3(CCCCC3)C2=O)cc1`, the RP-LC retention time was determined as 719 s.
The compound `CC(C)c1ccc(S(=O)(=O)N(C)CC2CCOCC2)cc1` returned an RP-LC retention time of 1010 s.
Compound `Cc1nnc2c(=O)n(CC(=O)NC(C)c3ccc(F)cc3)c3cccnc3n12` (centres undefined) had an RP-LC retention time of 677 s.
Turning to `CNC(=O)C1CCCN(C(=O)Nc2ccc(NC(=O)Nc3ccc(F)cc3)cc2)C1` (centres undefined), the RP-LC retention time is 665 s.
Under `COC(=O)[C@H](CCSC)NC(=O)c1ccc(-n2cnnn2)cc1` stands 693 s; under `Cc1ccc(CN2CCN(CC(=O)Nc3ccncc3)C(=O)C2=O)cc1`, 588 s.
As for `COc1ccc(OC)c(Nc2c(-c3ccc(C(=O)O)cc3)nc3cnccn23)c1`, the figure is 709 s.
Consider `COCC(=O)Nc1ccc2nc(N3CCN(C4CCCCC4)CC3)cc(C(=O)O)c2c1`, for which the RP-LC retention time came to 558 s.
Under `COc1cc(NC(=O)N2CCOc3ccc(Cl)cc32)cc(OC)c1OC` stands 899 s; under `COc1ccc(-c2nc3ncccn3c2Nc2ccc(C)cc2)cc1`, 744 s.
As to `Cc1ccc(C)c(NC(=O)N2CCN(CCn3cnc4cccnc43)CC2)c1`, the RP-LC retention time came out at 596 s.
On to `NS(=O)(=O)c1ccc(NC(=O)CN2C(=O)c3ccccc3C2=O)cc1`, for which the RP-LC retention time worked out at 623 s.
As for `O=C(Cn1cc(-c2ccccc2)c2ncnc(N3CCOCC3)c21)NC1CCCCC1`, the figure is 753 s; as for `CC(=O)N1CCc2cc(N3CC(C(=O)NCc4ccc(F)cc4F)CC3=O)ccc21` (centres undefined), 692 s.
As for `O=C(O)CCNc1c(-c2ccc(F)cc2)nc2cnccn12`, the figure is 619 s; as for `Cc1cnn(CC(=O)N2CCCn3ccnc3C2C2CCCC2)c1` (centres undefined), 597 s; as for `Cc1nnc(NC(=O)c2cn(Cc3cccc(F)c3)nc2OCc2cccc(F)c2)s1`, 935 s.
On to `Cc1cc2c(cc1S(=O)(=O)N1CCCC1C(=O)Nc1ccc(F)c(Cl)c1)OC(C)C(=O)N2` (centres undefined), for which the RP-LC retention time turned out to be 866 s.
As for `CCOc1nc2ccccc2nc1N1CCCC(C(=O)N2CCN(c3ccccc3)CC2)C1` (centres undefined), the figure is 1280 s; as for `CCN(CC)CCCNC(=O)C1CCCN(c2ncc(-c3cccc(F)c3)cn2)C1` (centres undefined), 677 s.
`COc1cccc(-c2nnc(Cc3nc(-c4ccccc4Cl)no3)o2)c1` registered an RP-LC retention time of 1020 s.
As for `Cc1ccc2nc(-c3ccc(N4CCOCC4)cc3)c(Nc3ccc4c(c3)OCCO4)n2c1`, the figure is 692 s; as for `Cc1ccc(C)c(N2CCN(C(=O)C3CCN(S(=O)(=O)c4cn(C)cn4)CC3)CC2)c1`, 832 s.
`COc1cc(C)c(Br)cc1S(=O)(=O)N1CCC(C(N)=O)CC1` registered an RP-LC retention time of 697 s.
Under `COc1ccc2c(C)c(CC(=O)N3CCC(C(N)=O)CC3)c(=O)oc2c1OC` stands 622 s.
Under `CCOC(=O)c1nc(N(CC)c2ccc(CC)cc2)c2ccccc2n1` stands 1130 s; under `CCOCCCNC(=O)C1c2ccccc2C(=O)N(C)C1c1cccs1` (centres undefined), 722 s; under `CC(C)N1C(=O)c2cccnc2Sc2cc(C(=O)N3CCCN(C)CC3)ccc21`, 596 s.
Under `COC(=O)c1cccc(-c2nc(C3CC(=O)N(c4ccc(F)cc4)C3)no2)c1` (centres undefined) stands 884 s; under `Cc1c(C(=O)N2CCN(C)CC2)cnn1-c1ccc(-c2nc(C3CC3)no2)cn1`, 635 s; under `Cc1noc(C)c1CCC(=O)N1CCCn2ccnc2C1C1CCCC1` (centres undefined), 613 s.
In turn, `Cn1nccc1C(=O)Nc1ccc(OCc2nnc(-c3ccc(Cl)cc3)o2)cc1` registered an RP-LC retention time of 864 s.
As for `CCn1c(=O)sc2cc(S(=O)(=O)N3CCC(C(=O)NCCC4=CCCCC4)CC3)ccc21`, the figure is 958 s.
Under `O=C(N[C@@H]1CN(Cc2ccc(Cl)cc2F)CC[C@@H]1CO)C1CC1` stands 598 s; under `COc1ccc(OCC2c3cc(OC)c(OC)cc3CCN2C(=O)CC(C)C)cc1` (centres undefined), 891 s; under `O=C(NCC1(CO)CC1)c1c(F)cccc1Cl`, 609 s.
As to `COc1ccc(C(O)Cn2ccn3nc(-c4cc(C)ccc4C)cc3c2=O)cc1` (centres undefined), the RP-LC retention time was found to be 949 s.
For the compound `CC1(C)O[C@H]2CC(=O)OC[C@]23[C@H]2CC[C@@]4(C)[C@H](c5ccoc5)OC(=O)C5O[C@]54[C@]2(C)C(=O)C[C@@H]13` (some centres undefined), the RP-LC retention time stood at 918 s.
As for `CCOc1ccc(NC(=O)CSc2nccc(N3CCN(c4cc(C)ccc4C)CC3)n2)cc1`, the figure is 928 s.
As for `CCCc1nc(NCc2ccccn2)ncc1C(=O)O`, the figure is 571 s; as for `Cc1oc(-c2ccc(Cl)cc2)nc1CN1CCCC(C(=O)N2CCN(C(=O)c3ccco3)CC2)C1` (centres undefined), 679 s; as for `CC(NC(=O)c1ccccc1)c1nc(-c2ccc(NS(C)(=O)=O)cc2)no1` (centres undefined), 766 s.
In turn, `Cc1nc(N2CCOCC2)c2c(C(=O)NCc3ccc(Cl)cc3)c(C)oc2n1` registered an RP-LC retention time of 797 s.
Compound `Cc1noc([C@@H]2CN(S(=O)(=O)c3c(C)noc3C)C[C@H]2C(N)=O)n1` yielded an RP-LC retention time of 667 s.
As for `CCOC(=O)N1CCN(C(=O)CSc2nccc3c(OC)cccc23)CC1`, the figure is 810 s; as for `CNC(=O)Cc1ccc(NC(=O)NC2CCCCC2)cc1`, 642 s.
Under `COCCCNC(=O)c1ccc(-n2nc(Sc3ccc(Cl)cc3)ccc2=O)cc1` stands 863 s; under `CCc1ccc(C(=O)N2CCc3[nH]nc(C(=O)N(C)C)c3C2)cc1`, 659 s; under `O=C(c1ccc2c(c1)Sc1ncccc1C(=O)N2C1CC1)N1CCCCC1`, 733 s.
For the compound `NC(=O)C1CCN(C(=O)COCc2cc(-c3cccs3)on2)CC1`, the RP-LC retention time stood at 640 s.
As for `CC(C)NC(=O)c1ccc(OCC2CCCN2C(=O)c2ccc(F)c(F)c2)cc1` (centres undefined), the figure is 862 s; as for `Cc1nc2c(n1C)CN(C(=O)Cc1ccc(F)cc1)CC2`, 582 s.
The compound `CCn1cc(S(=O)(=O)NCCn2c(C)cnc2-c2ccccc2)cn1` yielded an RP-LC retention time of 560 s.
Regarding `CCCC(=O)N1CCc2c([nH]c3ccccc23)C1c1ccc(OCC)cc1` (centres undefined), the RP-LC retention time turned out to be 1140 s.
As for `Cn1c(=O)c2cc(C(=O)N3CCN(c4ccccc4F)CC3)sc2n(C)c1=O`, the figure is 765 s.
Under `CCOC(=O)c1nc(N2CCN(c3ccccn3)CC2)c2c(C)noc2n1` stands 596 s; under `COc1ccccc1N1CCN(c2ncc(S(=O)(=O)c3ccc(C(C)C)cc3)c(N)n2)CC1`, 1120 s; under `Cc1ccc(Oc2cccc(C(=O)NCCNc3cc(N4CCCC4)nc(C)n3)c2)nn1`, 562 s.
Regarding `CCn1nccc1C(=O)N1CC(Oc2ccc(-c3nc(-c4ccccc4)no3)cc2)C1`, the RP-LC retention time turned out to be 1120 s.
`CC1(C)CC(=O)c2cn(-c3ccccc3)c(=O)c(C(=O)Nc3ccc4c(c3)OCCO4)c2C1` had an RP-LC retention time of 976 s.
As for `CCCN1C(=O)C2CCC(=O)N2c2ccc(C(=O)Nc3cccc(SC)c3)cc21` (centres undefined), the figure is 879 s.
Regarding `Cc1cnc(C(=O)N2CCCC2c2nc(CCOCC3CC3)no2)cn1` (centres undefined), the RP-LC retention time came to 733 s.
`Cc1cc(C)c2c(N3CCSCC3)nc(C(=O)N3CCCN(C)CC3)nc2n1` displayed an RP-LC retention time of 600 s.
Under `Cc1ccc(N2CCC(NC(=O)c3ccc(F)cc3)C2=O)cc1C` (centres undefined) stands 828 s.
As for `COC(=O)C1=CN(c2cccc(SC)c2)c2cc(F)ccc2S1(=O)=O`, the figure is 925 s; as for `COc1ccc(C(=O)N2CCC[C@H]2c2nc(C(C)C)n[nH]2)c(OC)n1`, 590 s.
As to `CCC(=O)N1CCOc2ccc(N3CCOCC3)cc2C1`, the RP-LC retention time amounted to 630 s.
Under `Cc1cc(NC(=O)NCCn2nnc3cc(C(=O)N(C)C)ccc32)ccc1Br` stands 707 s; under `CCOc1ccc(C(=O)N2CCN(c3cnn4c(C5CC5)nnc4c3)CC2)cc1`, 659 s; under `O=C(Cn1cnc2c(nc3n2CCCCC3)c1=O)NCc1ccco1`, 618 s.
As for `CC1CCN(C(=O)c2cc(S(=O)(=O)N3CCC(C(=O)N4CCCCCC4)CC3)cn2C)CC1`, the figure is 839 s; as for `CN1C(=O)[C@H]2CN(Cc3cc(F)ccc3F)C[C@H]2C1=O`, 602 s; as for `CCCNC(=O)C1CCCN(c2nc3ncn(CC(=O)Nc4cc(F)ccc4C)c(=O)c3s2)C1` (centres undefined), 705 s.
The compound `CC(=O)N(C)CCc1noc(C2CN(C(=O)c3c(C)noc3C)C2)n1` yielded an RP-LC retention time of 595 s.
As for `CCCC(NC(=O)c1cccc(C)c1)C(=O)Nc1nc2ccccc2[nH]1` (centres undefined), the figure is 715 s.
